According to PMC4550478, “Metronidazole-triazole conjugates: Activity against Clostridium difficile and parasites” (European Journal of Medicinal Chemistry, 2015):
Values after ≈ are worked out from the molar mass of the structure shown. Like-named read-outs stand apart in the source and are kept apart here.

Assays:
[1] = tested on: C. difficile NAP1/027 M7404; experiment: MIC broth microdilution, C. difficile NAP1/027 M7404; format: cell-based, Clostridium difficile; conditions: Clostridioides difficile, NAP1/027M7404; NAP1/027 (footnote d: M7404), MtzS, 24 h, median of at least n = 4
Experimental: (§1) All compounds were tested for activity against a set of anaerobic C. difficile bacteria (630 ATCC BAA-1382, NAP1/027 M7404, NAP1/027 ATCC BAA-1803, VPI10463 ATCC 43255, CD26A54_S and CD26A54_R) and representative ESKAPE pathogens S. aureus (MRSA ATCC 43300), E. coli (ATCC 25922), K. pneumoniae (ATCC 700603), A. baumannii (ATCC 19606) and P. aeruginosa (ATCC 27853) using a standard broth microdilution assay. Selected compounds were tested for activity against H. pylori strains (26695, and clinical isolates MtzS 13/25, MtzR 98/285 and MtzR 13/61) using agar plate dilution, and for antimicrobial activity against […] Gram-positive bacterial strains: Enterococcus faecalis (VanA clinical isolate), Enterococcus faecium (MDR VanA ATCC 51559), Streptococcus pneumoniae (MDR ATCC 700677), S. aureus (MRSA ATCC 43300, MRSA clinical isolate, MRSA/DRSA clinical isolate, GISA NARSA NRS 1, GISA NARSA NRS 17, VRSA NARSA VRS1, VRSA NARSA VRS4 and VRSA NARSA VRS10) using broth microdilution. C. difficile strains were grown at 37 °C in a COY anaerobic chamber (5% H2, 10% CO2, 85% N2). H. pylori strains were grown at 37 °C under a microaerobic atmosphere (5% O2, 10% CO2). All facultative anaerobic bacteria were grown at 37 °C with normal atmospheric oxygen levels. All experiments were performed in duplicate with metronidazole, vancomycin, linezolid or colistin as positive controls for relevant strains (see Table 1). Positive growth control of bacteria and DMSO as well as a negative control of only media were included for every plate. Full assay details are provided in the supplementary information.
(§2) C. difficile ATCC BAA-1382, ATCC BAA-1803, ATCC 43255 and M7404 heat shocked spore stocks (10 µL) were transferred into the anaerobic chamber and 10 µL streaked onto pre-reduced (at least 2.5 hr in anaerobic chamber) BHIS agar plates supplemented with 0.1% w/v sodium taurocholate (BHIS(TA)). Plates were incubated for 24 hours prior to assay to give colonies of size 1-3mm diameter with characteristic uneven borders.
(§3) The minimum inhibition concentration was determined according to the CLSI Methods with modifications in broth and inoculum for C. difficile according to Babakhani et al.^7,8 Briefly, compounds were prepared to 20X final concentration in 100% water, 60% DMSO and 40% water or 60% DMSO and 40% media. The compounds along with standard antibiotics were serially diluted two-fold across the wells of 96-well non-binding surface plates (Non binding surface, Corning). The plates were placed in the anaerobic chamber overnight to reduce. C. difficile bacteria from BHIS(TA) agar plates were cultured anaerobically in BHIS at 37 °C overnight. A sample of culture was then diluted 40-fold in BHIS broth and incubated at 37 °C for approximately 4.5 hrs. The resultant mid-log phase culture (OD600= 0.5-0.6) was diluted to the final concentration of ~1×10^6 CFU/mL, then 50 µL was added to each well of the compound-containing 96-well plates. This gave final cell concentration of 5×10^5 CFU/mL, final volume 100 µL and 3% maximum DMSO concentration. Compound concentration was typically from 64 to 0.03 µg/mL. An antibiotic standard was included on each 96 well plate as well as a positive growth control (no compound) and sterility control (no bacteria). All the plates were covered and incubated at 37 °C for 24 h. MICs were the lowest concentration showing no visible growth.

[2] = tested on: G. lamblia 713-M3 (713M); experiment: ATP-bioluminescence growth and survival assay, metronidazole resistant G. lamblia 713-M3; format: cell-based; conditions: Giardia duodenalis, read-out: EC50 G. lamblia 713M
Experimental: (§4) Compounds were tested for antiparasitic activity against E. histolytica (HM1:1MSS strain) and G. lamblia (WB, BRIS/87/HEPU/713 (713), BRIS/83/HEPU/106 (106) and the metronidazole resistant syngeneic line 713-M3 [[15,16]]) using an ATP-bioluminescence based screen for cell growth and survival [[17,18]]. Assay plates were inoculated with trophozoites (5 × 10^3 parasites/well) and incubated in the GasPak™ EZ Anaerobe Gas Generating Pouch Systems (VWR, West Chester, PA) to maintain anaerobic conditions throughout the incubation period. The assays were performed in triplicate using the CellTiter-Glo Luminescent Cell Viability Assay. Metronidazole was used as a positive control.
(§5) Trophozoites of E. histolytica strain HM1:IMSS and G. lamblia strains WB, BRIS/87/HEPU/713 (713),^10 BRIS/83/HEPU/106 (106)^11 and the metronidazole resistant syngenic line 713-M3^10,11 were axenically maintained in TYI-S-33 medium supplemented with penicillin (100 U/ml), streptomycin (100 µg/ml).^12 E. histolytica and G. lamblia trophozoites were counted using a particle counter (Beckman Coulter, Fullerton, CA). All experiments were performed using trophozoites harvested during the logarithmic phase of growth.
(§6) A three-fold serial dilution was then performed yielding a concentration range 0.25-625 µM. From this dilution plate, 4 µL were transferred into the 96-well screen plates followed by addition of 96 µL of trophozoites (5,000 parasites) to yield a final 8-point concentration range spanning 0.01- 25 µM. Assay plates were incubated for 48 h at 37 °C in the GasPak^TM EZ Anaerobe Gas Generating Pouch Systems (VWR, West Chester, PA) to maintain anaerobic condition throughout the incubation period. The assays were performed in triplicate using the CellTiter-Glo Luminescent Cell Viability Assay.^13

[3] = tested on: G. lamblia BRIS/83/HEPU/106 (106); experiment: ATP-bioluminescence growth and survival assay, G. lamblia 106; format: cell-based; conditions: Giardia duodenalis, read-out: EC50 G. lamblia 106
Experimental: as §4, §5, §6

[4] = tested on: C. difficile 630 ATCC BAA-1382; experiment: MIC broth microdilution, C. difficile 630; format: cell-based, Clostridium difficile; conditions: Clostridioides difficile, ATCCBAA1382, MtzS, 24 h, median of at least n = 4
Experimental: as §1, §2, §3

Row | SMILES | MIC [1] | EC50 [2] | EC50 ([3]; MtzS, purified compounds, this study) | MIC [4] | EC50 [3]
1 | Cc1ncc([N+](=O)[O-])n1CCO [Compound 1, metronidazole] | 0.5 µg/mL (≈ 2.92 µM) | 17000 nM | 2800 nM | 0.5 µg/mL (≈ 2.92 µM) | –
2 | Cc1ncc([N+](=O)[O-])n1CCn1cc(-c2ccccc2)nn1 [Compound 4a, 1-(2-(2-methyl-5-nitro-1H-imidazol-1-yl)ethyl)-4-phenyl-1H-1,2,3-triazole] | 0.5 µg/mL (≈ 1.68 µM) | 2300 nM | – | 0.5 µg/mL (≈ 1.68 µM) | 280 nM
3 | COc1ccc(-c2cn(CCn3c([N+](=O)[O-])cnc3C)nn2)cc1 [Compound 4b, 1-(2-(2-methyl-5-nitro-1H-imidazol-1-yl)ethyl)-4-(4-methoxyphenyl)-1H-1,2,3-triazole] | 0.5 µg/mL (≈ 1.52 µM) | 1000 nM | – | 0.5 µg/mL (≈ 1.52 µM) | 640 nM
4 | Cc1ncc([N+](=O)[O-])n1CCn1cc(-c2ccc(Cl)cc2)nn1 [Compound 4c, 1-(2-(2-methyl-5-nitro-1H-imidazol-1-yl)ethyl)-4-(4-chlorophenyl)-1H-1,2,3-triazole] | 0.25 µg/mL (≈ 0.751 µM) | 3500 nM | – | 0.5 µg/mL (≈ 1.5 µM) | 890 nM
5 | Cc1ncc([N+](=O)[O-])n1CCn1cc(-c2ccc(Cl)c(Cl)c2)nn1 [Compound 4d, 1-(2-(2-methyl-5-nitro-1H-imidazol-1-yl)ethyl)-4-(3,4-dichlorophenyl)-1H-1,2,3-triazole] | 1 µg/mL (≈ 2.72 µM) | 1200 nM | – | 0.5 µg/mL (≈ 1.36 µM) | 1100 nM
6 | Cc1ccc(-c2cn(CCn3c([N+](=O)[O-])cnc3C)nn2)cc1 [Compound 4e, 1-(2-(2-methyl-5-nitro-1H-imidazol-1-yl)ethyl)-4-(p-tolyl)-1H-1,2,3-triazole] | 0.5 µg/mL (≈ 1.6 µM) | 1000 nM | – | 0.5 µg/mL (≈ 1.6 µM) | 290 nM
7 | COC(=O)c1cn(CCn2c([N+](=O)[O-])cnc2C)nn1 [Compound 4f, 1-(2-(2-methyl-5-nitro-1H-imidazol-1-yl)ethyl)-4-(methoxycarbonyl)-1H-1,2,3-triazole] | 1 µg/mL (≈ 3.57 µM) | 3100 nM | – | 1 µg/mL (≈ 3.57 µM) | 2000 nM
8 | Cc1ncc([N+](=O)[O-])n1CCn1cc(-c2ccccn2)nn1 [Compound 4h, 1-(2-(2-methyl-5-nitro-1H-imidazol-1-yl)ethyl)-4-(2-pyridinyl)-1H-1,2,3-triazole.xTFA] | 0.5 µg/mL | 950 nM | – | 0.5 µg/mL | 380 nM
9 | Cc1ncc([N+](=O)[O-])n1CCn1cc(Cc2ccccc2)nn1 [Compound 4k, 1-(2-(2-methyl-5-nitro-1H-imidazol-1-yl)ethyl)-4-benzyl-1H-1,2,3-triazole] | 0.5 µg/mL (≈ 1.6 µM) | 1100 nM | – | 0.5 µg/mL (≈ 1.6 µM) | 510 nM
10 | Cc1ncc([N+](=O)[O-])n1CCn1cc(C(O)c2ccccc2)nn1 (stereo not drawn) [Compound 4l, 1-(2-(2-methyl-5-nitro-1H-imidazol-1-yl)ethyl)-4-(1-phenyl-1-hydroxylmethyl)-1H-1,2,3-triazole] | 0.5 to 1 µg/mL (≈ 1.52 to 3.05 µM) | 3000 nM | – | 1 µg/mL (≈ 3.05 µM) | 2200 nM
11 | Cc1ncc([N+](=O)[O-])n1CCn1cc(CN(C)Cc2ccccc2)nn1 [Compound 4m, 1-(2-(2-methyl-5-nitro-1H-imidazol-1-yl)ethyl)-4-(N-benzyl, N-methylaminomethyl)-1H-1,2,3-triazole] | 2 µg/mL (≈ 5.63 µM) | 2200 nM | – | 2 µg/mL (≈ 5.63 µM) | 1100 nM
12 | Cc1ncc([N+](=O)[O-])n1CCn1cc(-c2ccsc2)nn1 [Compound 4n, 1-(2-(2-methyl-5-nitro-1H-imidazol-1-yl)ethyl)-4-(thiophen-3-yl)-1H-1,2,3-triazole] | 0.5 µg/mL (≈ 1.64 µM) | 900 nM | – | 0.5 µg/mL (≈ 1.64 µM) | 340 nM
